Results on four compounds are retold here after the NIST ThermoML archive (doi:10.1021/acs.jced.7b00445).

The conditions of series [1]: 298.15 K; 101.33 kPa; Liquid; Pycnometric method.
A short description of series [2]: Boiling temperature at pressure P. Particulars: 101.3 kPa; Liquid; Ebulliometric method (Recirculating still).
Series [3] is described as follows: refractive index (Na D-line) (dimensionless). Conditions: 298.15 K; 101.33 kPa; Liquid; Standard Abbe refractometry.

± gives the expanded uncertainty stated by the source.

Regarding `CCC(C)OC(C)=O` (configuration not stated) [1-methylpropyl ethanoate], in series [1], the mass density – broadly, the mass of a sample divided by its volume – is on record as 867 ± 2 kg/m3. In addition, the “Boiling temperature at pressure P” value in series [2] stood at 111.97 ± 0.16 °C. Moreover, the refractive index (as a rule, the speed of light in vacuum divided by its phase velocity in the sample) in series [3] was 1.3872 ± 0.0004.

As for `CCO` [ethanol], in series [1], the mass density stood at 786 ± 2 kg/m3. Also, in series [2], the “Boiling temperature at pressure P” value was found to be 78.27 ± 0.16 °C. For the same compound, in series [3], the refractive index stood at 1.3596 ± 0.0004.

`CCCO` [propan-1-ol]: the mass density in series [1] is 802 ± 2 kg/m3. Also, the “Boiling temperature at pressure P” value in series [2] is 97.17 ± 0.16 °C. Besides, in series [3], the refractive index is reported as 1.3842 ± 0.0004.

As for `CC(C)O` [propan-2-ol], the mass density in series [1] came out at 782 ± 2 kg/m3. Further, in series [2], the “Boiling temperature at pressure P” value came to 82.36 ± 0.16 °C. Further, the refractive index in series [3] is given as 1.3757 ± 0.0004.
